# Read-outs that look alike come from different tables or passages of the source.
# Experiments:
# mice = experiment: in vivo
# Procedure: (§1) Determination of the LD50 Value on Mice
# (§2) Animal: male CDI mice (starved) weighing 20 to 22 g each at the time of treatment.
# (§3) Observation period: 2 weeks.
# (§4) Vehicle: 1 to 2% of Tween-80 in distilled water or in physiological saline, respectively.
# (§5) Treatment volume 0.1 ml/10 g of body-weight.
# in vivo = conditions: mouse, in vivo
# Procedure: as §1, §2, §3, §4, §5
# [1] = tested on: occlusion and reperfusion arrhythmias in anaesthetized rabbits; experiment: Occlusion and reperfusion induced arrhythmias following acute coronary artery ligation in anaesthetized rabbits; type: in vivo, male rabbits; conditions: 0.03 mg/kg
# Procedure: The method used is essentially in agreement with the method of Thiemermann et al. [Br. J. Pharmacol. 97, pp. 401-408 (1989)].
# A loose surgical thread loop was placed round the left circumflex coronary artery of the heart following thoracotomy in pentobarbital (30 mg/kg i.v.) anaesthetized male rabbits (weighing 2 to 3 kg); both ends of the thread loop were led out from the chest through an elastic tube. Standard electrocardiogram was registered by using needle electrodes under the skin. The blood pressure of animals was continuously measured by using a catheter placed into the common carotid artery. After stabilization of the blood pressure and heart frequency, the loose loop was tightened to establish a regional myocardial ischaemia. After 10 minutes of ischaemia, the ligature was released and a reperfusion for 10 minutes was established. The survival, the incidence of arrhythmias, the time of onset of arrhythmia and the length of episodes were registered. The animals received physiological saline solution (control) intravenously (2 ml/kg) or 0.03 mg/kg of the compound of Example 15 or a 3 mg/kg dose of d-sotalol at 5 minutes before the occlusion.
# By using this method, it can be stated whether the compound under test would be effective for the protection from arrhythmias following coronary artery ligation.
# [2] = tested on: arrhythmias following coronary artery occlusion in conscious rats; experiment: Occlusion arrhythmia following acute coronary artery ligation in conscious rats; type: in vivo, male rats
# Description: The method used is essentially in agreement with the method of Lepran et al. [J. Pharmacol. Methods 9, pp. 219-230 (1983)].
# During a previous operation, male rats weighing 340 to 360 g each were fitted with a loose surgical thread loop around the left descending coronary vessel, at about 2 mm from its origin. The ends of the loop thread were led out from the chest under the skin, then the surgical wound was closed. After complete recovery from this previous operation (7 to 8 days) acute myocardial ischaemia was induced by contracting the loose ligation in the conscious, freely moving animals. ECG was continuously registered by using bipolar chest electrodes before the ligation of the coronary artery and during the first 15 minutes of ischaemia. The ratio of survivals was determined and the developed arrhythmias were evaluated according to the Lambeth Convention [Walker et al.: Cardiovasc. Res. 22, 447-455 (1988)]. For evaluation of the arrhythmic episodes a score system was also employed by considering the severity of episodes on the basis of a score system from 0 to 6. Both d-sotalol and the substance of Example 15, respectively, were suspended in 1% methylcellulose and administered orally through a gastric sound at 1 hour before the compression of the coronary vessel. The control animals received a treatment with the same volume, i.e. 5 ml/kg of vehicle.
# [3] = tested on: right ventricular papillary muscle; experiment: Measurement of the contractile force in vitro; parameters: species or system rabbits; conditions: 1 Hz; expected therapeutic concentration
# Procedure: The method used is essentially in agreement with the method of Virag et al. [Gen. Pharmac. 27, pp. 551-556 (1996)].
# Papillary muscles of hearts of rabbits (weighing 2 to 3 kg each) were prepared and placed into an organ bath (37° C.) containing modified Tyrode's nutrient medium. The preparations were stimulated by point-stimulation with a basal frequency of 1 Hz. The contractile force was measured by using an auxotonic method. The compounds under test were directly added into the organ bath after dilution of the stock solution according to the final concentration desired. The effects of compounds were observed after an incubation period of 30 to 45 minutes.
# Using this method used information can be obtained concerning the direct cardiac effects of the compounds investigated. The effect of the compound of Example 15 on the contractile force is illustrated on the right ventricular papillary muscle at a frequency of 1 Hz in FIG. 2.
# [4] = tested on: occlusion and reperfusion arrhythmias in anaesthetized dogs; experiment: Occlusion and reperfusion arrhythmias following acute coronary ligation in anaesthetized dogs; type: in vivo, mongrel dogs
# Procedure: The method used is essentially in agreement with the method of Vegh et al. [Basic Res. Cardiol. 82, 159-171 (1987)].
# Mongrel dogs of both sexes weighing 10 to 20 kg each were anaesthetized by a mixture of chloralose (60 mg/kg) and urethane (200 mg/kg) and the animals were maintained on artificial respiration. After opening the chest, the ramus descendens anterior (LAD) branch of the left coronary artery of heart was prepared from the first main collateral branch and a loose loop from surgical thread was placed around it. During our experiments, the blood pressure of the animal was measured by using a cannule introduced to the left femoral artery and even the standard ECG parameters by using needle electrodes were continuously registered. The arrhythmias were induced by the occlusion for 25 minutes of a loop placed round the LAD. The survival after lethal arrhythmias and frequency of the arrhythmias were registered. The 28 dogs used in the experiments were divided into three groups. The compound of Example 15 was administered in a dose of 1 mg/kg to 8 animals; d-sotalol was given in a dose of 3 mg/kg to 10 animals by a single intravenous injection 10 minutes before compression of the coronary vessel. The control dogs (10 animals) received 5 ml of physiological saline solution in the same manner as the treated animals.
# By using this method it can be stated whether the substance investigated would be effective for protection against arrhythmias following the ligation of the coronary artery.
# [5] = tested on: isolated right ventricular trabecule of dog heart; experiment: Extracellular electrophysiological measurements: impulse conduction time and effective refractory period; parameters: species or system mongrel dogs; conditions: for activation at 2 µM / activation at 10 µM: Canis lupus familiaris
# Procedure: Right ventricular trabecules were prepared from the heart of mongrel dogs (weighing 5 to 10 kg each). The surviving heart pieces were placed into an organ bath (37° C.) containing modified Tyrode's nutrient medium and excited by point stimulation with a basal frequency of 1 Hz. Extracellular bipolar platinum electrodes were placed on the surface of the preparations, by means of which the propagation of the superficial potentials were registered; thus, the determination of the time of impulse conduction or the rate of impulse conduction, respectively, and the effective refractory period (ERP) became possible. During our experiments,the frequency of stimulation was temporarily varied from 0.5 Hz up to 3 Hz. The tested compounds were directly added to the organ bath after dilution of the stock solution according to the desired final concentration.
# [6] = p.o. 25 mg/kg, first 15 minutes
# [7] = 1 Hz, read-out: Prolongation (%) of ERP
# [8] = 1 Hz, read-out: Prolongation (%) of impulse conduction time
# [9] = 3 Hz, read-out: Prolongation (%) of ERP
# [10] = 3 Hz, read-out: Prolongation (%) of impulse conduction time
smiles,measurement,setting,value
"Cc1cccc(C)c1OCC(C)N(C)CCc1ccc(NS(C)(=O)=O)cc1.Cl (stereo not drawn) [Example 15, N-[4-[2-[N-Methyl-N-[2-(2,6-dimethylphenoxy)-1-methylethyl]amino]ethyl]phenyl]methanesulfonamide hydrochloride]",cause of death,mice; i.p.,respiratory paralysis
same,Mortality,mice; i.p. 150 mg/kg,1/10
same,Mortality,mice; i.p. 175 mg/kg,7/10
same,Mortality,mice; i.p. 200 mg/kg,9/10
same,cause of death,mice; p.o.,respiratory paralysis
same,Mortality,mice; p.o. 500 mg/kg,0/5
same,Mortality,mice; p.o. 600 mg/kg,2/5
same,Mortality,mice; p.o. 700 mg/kg,5/5
same,LD50 at 336 h,in vivo; ip,170 mg/kg
same,LD50 at 336 h,in vivo; po,550 to 650 mg/kg
same,antiarrhythmic effect against reperfusion arrhythmias (in words),[1],strong antiarrhythmic effect
same,heart rate (in words),"[2]; 25 mg/kg, first 15 minutes of myocardial infarction",statistically unchanged
same,antiarrhythmic effect (in words),[2]; oral administration,showed an antiarrhythmic effect even after oral administration
same,Survival 15 minutes,[2]; p.o. 25 mg/kg,8/50
same,Survival 16 hours,[2]; p.o. 25 mg/kg,7/44
same,Occurrence of arrhythmias: Brady,[2]; [6],2/12
same,Occurrence of arrhythmias: Free (no arrhythmia was observed),[2]; [6],3/19
same,Occurrence of arrhythmias: Other,[2]; [6],9/56
same,Occurrence of arrhythmias: VF,[2]; [6],10/63
same,Occurrence of arrhythmias: VT,[2]; [6],12/75
same,Arrhythmia Score,"[2]; p.o. 25 mg/kg, score system from 0 to 6",3.94 ± 0.64
same,negative inotropic action (in words),[3],did not induce any negative inotropic action
same,"Complete survival, animals",[4]; 1 mg/kg i.v.,7/8
same,"Complete survival, percent",[4]; 1 mg/kg i.v.,87.5%
same,protection from arrhythmogenic effects of ligation and reperfusion (in words),"[4]; 1 mg/kg, versus d-sotalol 3 mg/kg",protected from the arrhythmogenic effects of ligation and reperfusion of the coronary artery to a higher degree than a dose of 3 mg/kg of d-sotalol
same,ES (extrasystole),"[4]; occlusion, 1 mg/kg i.v.",36.6 ± 84.1
same,"VF (ventricular fibrillation), animals","[4]; occlusion, 1 mg/kg i.v.",1/8
same,"VF (ventricular fibrillation), percent","[4]; occlusion, 1 mg/kg i.v.",12.5%
same,"VT (ventricular tachycardia), animals","[4]; occlusion, 1 mg/kg i.v.",1/8
same,"VT (ventricular tachycardia), percent","[4]; occlusion, 1 mg/kg i.v.",12.5%
same,"VF (ventricular fibrillation), animals","[4]; reperfusion, 1 mg/kg i.v.",0/7
same,"VF (ventricular fibrillation), percent","[4]; reperfusion, 1 mg/kg i.v.",0%
same,activation at 2 µM,[5]; [7],11.6%
same,activation at 2 µM,[5]; [8],11.1%
same,activation at 2 µM,[5]; [9],13.6%
same,activation at 2 µM,[5]; [10],13.4%
same,activation at 10 µM,[5]; [7],22.8%
same,activation at 10 µM,[5]; [8],42%
same,activation at 10 µM,[5]; [9],31.3%
same,activation at 10 µM,[5]; [10],73.8%
same,effect on effective refractory period (in words),[5]; concentrations of Table 1,simultaneous prolongation of the effective refractory period (ERP)
same,effect on impulse conduction (in words),[5]; concentrations of Table 1,significantly prolonged the time of impulse conduction in a frequency-dependent manner

# Source: patent US6265445A, “Antiarrhythmic compounds” (priority 1997, dated 2001)
